The values that follow are results of earlier work, collected in patent US20260256672A1, “COMPOSITION COMPRISING SKIN CARE ACTIVE INGREDIENT OR CELLULOSE COMPOUND” (L'OREAL, priority 2022, published 2026).

For this data set the following is noted: base-ten logarithm of apparent octan-1-ol/water partition coefficient.
`NC(=O)c1cccnc1` [Niacinamide]: the log partition coefficient (Log P) is −0.37.

For `NC[C@H]1CC[C@H](C(=O)O)CC1` [Tranexamic Acid], the “Log P” value is −1.6.

In the case of `O=C1O[C@H]([C@@H](O)CO)C(O)=C1O[C@H]1O[C@H](CO)[C@@H](O)[C@H](O)[C@H]1O` [Ascorbyl Glucoside], the “Log P” value is given as −3.4.

With `CC(O)C[C@H]1OC[C@@H](O)[C@H](O)[C@H]1O` (stereo partly drawn) [Hydroxypropyl Tetrahydropyrantriol, C-beta-D-xylopyranoside-2-hydroxpropane], the “Log P” value is listed as −1.5.

Broadly, the Log P is a log measure of how a compound divides between an organic and an aqueous phase.
